Consider two compounds from ChEMBL document CHEMBL5108027, “An unanticipated discovery of novel naphthalimidopropanediols as potential broad-spectrum antibacterial members” (Eur J Med Chem, 2022).

Values after ≈ are worked out from the molar mass of the structure shown. Active and inactive are the calls of the source. The calls are words filed in the database; no cut-off is given here.

One data set has as its system Acinetobacter baumannii. The data set is described as follows: Antibacterial activity against Acinetobacter baumannii measured by Muller-Hinton broth based microdilution assay. In kind it is functional.
In data set [1] the test system is Staphylococcus aureus. Kind of data set: Antibacterial activity against methicillin-resistant Staphylococcus aureus N315 measured by Muller-Hinton broth based microdilution assay. In kind it is functional. Background: In broth dilution the organism is exposed to a series of concentrations in liquid medium.
Data set [2] can be described thus: Hemolytic activity in human RBC measured after 1 hr. In kind it is toxicity, cell-based, Erythrocyte. The settings on record: human red blood cells (erythrocytes).
In data set [3] the test system is Escherichia coli. Kind of data set: Antibacterial activity against Escherichia coli ATCC 25922 measured by Muller-Hinton broth based microdilution assay. In kind it is functional.
Data set [4] concerns Pseudomonas aeruginosa. The data set is described as follows: Antibiofilm activity in Pseudomonas aeruginosa at 1 to 8 times MIC measured by Alamar blue assay. The class given is functional, organism-based. (The colour change of resazurin is a common sign of viable cells or microbes.)
Data set [5] in a line: Hemolytic activity in human RBC assessed as hemolytic rate at 2 to 512 ug/ml and measured after 1 hr. In kind it is toxicity, cell-based, Erythrocyte. As to conditions: human red blood cells (erythrocytes), at 2 to 512 µg/mL, dose 2-512 µg/ml, read-out: Activity.
Data set [6] has as its system Pseudomonas aeruginosa. The data set is described as follows: Antibacterial activity against Pseudomonas aeruginosa measured by Muller-Hinton broth based microdilution assay. In kind it is functional.
Data set [7] has as its system Staphylococcus aureus. The data set is described as follows: Antibacterial activity against Staphylococcus aureus ATCC 25923 measured by Muller-Hinton broth based microdilution assay. In kind it is functional.
The subject of the next data set is L929. The data set is described as follows: Cytotoxicity against mouse L929 cells assessed as effect on cell growth at 0.25 to 0.5 ug/ml incubated for 24 hrs by MTT assay. The settings on record: l929, 24 h, dose 0.25-0.5 µg/ml. The class given is toxicity, cell-based. Background: Formazan colour is commonly taken as a measure of viable cells.
Data set [8] relates to Escherichia coli. Kind of data set: Antibacterial activity against Escherichia coli measured by Muller-Hinton broth based microdilution assay. The class given is functional.
For data set [9], the system named is Pseudomonas aeruginosa. The data set is described as follows: Disruption of membrane integrity in Pseudomonas aeruginosa assessed as increase in protein leakage by measuring increase in absorbance 1 to 8 times MIC measured for 6 hrs by Bradford assay. The class given is functional, organism-based.
In data set [10] the test system is Pseudomonas aeruginosa. Kind of data set: Disruption of membrane integrity in Pseudomonas aeruginosa assessed as increase in nucleic acid leakage by measuring increase in absorbance 1 to 8 times MIC measured for 6 hrs by spectrophotometry. The class given is functional, organism-based.
The subject of the next data set is Enterococcus faecalis. The data set is described as follows: Antibacterial activity against Enterococcus faecalis measured by Muller-Hinton broth based microdilution assay. The class given is functional.
Data set [11] deals with Pseudomonas aeruginosa. The data set is described as follows: Antibacterial activity against Pseudomonas aeruginosa assessed as reduction in LDH activity at 1 to 8 times MIC measured after 6 hrs by microplate reader method. In kind it is functional. Details: scale not given: the % may be the effect or the level left.
The test system of data set [12] is Pseudomonas aeruginosa. The data set is described as follows: Disruption of membrane integrity in Pseudomonas aeruginosa at 8 times MIC by calcein-AM/PI staining based fluorescence analysis. The class given is functional, organism-based.
Data set [13] concerns Pseudomonas aeruginosa. The data set is described as follows: Induction of membrane depolarization in Pseudomonas aeruginosa at 0.5 to 2 times MIC measured upto 1 hr by DiSC35 dye-based fluorescence assay. In kind it is functional, organism-based.
For data set [14], the system named is Pseudomonas aeruginosa. Kind of data set: Inhibition of biofilm formation in Pseudomonas aeruginosa at 1 to 8 times MIC measured after 24 hrs by crystal violet staining method. The class given is functional, organism-based.
The test system of a further data set is Klebsiella pneumoniae. Kind of data set: Antibacterial activity against Klebsiella pneumoniae measured by Muller-Hinton broth based microdilution assay. The class given is functional.
Data set [15] concerns Staphylococcus aureus. The data set is described as follows: Antibacterial activity against Staphylococcus aureus measured by Muller-Hinton broth based microdilution assay. In kind it is functional.
Data set [16] relates to Pseudomonas aeruginosa. Kind of data set: Induction of oxidative stress in Pseudomonas aeruginosa assessed as increase in intracellular ROS level at 1 to 8 times MIC measured after 6 hrs by DCFH-DA staining method. The class given is functional, organism-based.
For data set [17], the system named is Pseudomonas aeruginosa. The data set is described as follows: Induction of outer membrane permeabilization in Pseudomonas aeruginosa preincubated for 30 mins at 1 to 8 times MIC measured by NPN fluorescent dye based assay. The class given is functional, organism-based.
The subject of data set [18] is Pseudomonas aeruginosa. The data set is described as follows: Antibacterial activity against Pseudomonas aeruginosa assessed as reduction in metabolic activity at 1 to 8 times MIC measured after 6 hrs by Alamar blue assay. The class given is functional, organism-based.
Data set [19] has as its system Pseudomonas aeruginosa. Kind of data set: Antibacterial activity against Pseudomonas aeruginosa ATCC 27853 measured by Muller-Hinton broth based microdilution assay. In kind it is functional.
The subject of data set [20] is Staphylococcus aureus. The data set is described as follows: Antibacterial activity against Staphylococcus aureus ATCC 29213 measured by Muller-Hinton broth based microdilution assay. In kind it is functional.
Data set [21] has as its system Pseudomonas aeruginosa. Kind of data set: Induction of inner membrane permeabilization in Pseudomonas aeruginosa by measuring increase in fluorescence intensity at 1 to 8 times MIC by calcein-AM/PI staining based fluorescence analysis. In kind it is functional, organism-based.
Data set [22] has as its system Pseudomonas aeruginosa. Kind of data set: Inhibition of bacterial growth of Pseudomonas aeruginosa at 1 to 2 times MIC. In kind it is functional.
Data set [23] can be described thus: Selectivity ratio of HC50 for hemolytic activity in human RBC to MIC for antibacterial activity against Pseudomonas aeruginosa. The class given is toxicity. As to conditions: human red blood cells (erythrocytes).
Data set [24] has as its system Pseudomonas aeruginosa. The data set is described as follows: Induction of oxidative stress in Pseudomonas aeruginosa assessed as decrease in GSH activity at 1 to 8 times MIC measured after 6 hrs by Ellman's assay. The class given is functional, organism-based.
The subject of data set [25] is Pseudomonas aeruginosa. Kind of data set: Antibacterial activity against Pseudomonas aeruginosa measured after 16 passages by resistance development assay. The class given is functional, organism-based.
Data set [26] has as its system Pseudomonas aeruginosa. The data set is described as follows: Bactericidal activity against Pseudomonas aeruginosa assessed as reduction in number of colonies at 0.5 to 2 times MIC measured within 6 hrs by time-kill assay. The class given is functional, organism-based.
Data set [27] deals with Staphylococcus aureus. Kind of data set: Antibacterial activity against Staphylococcus aureus assessed as fold increase in MIC measured after 16 passages by resistance development assay. The class given is functional.
Data set [28] has as its system Pseudomonas aeruginosa. The data set is described as follows: Antibacterial activity against Pseudomonas aeruginosa assessed as fold increase in MIC measured after 16 passages by resistance development assay. In kind it is functional.

Broadly, the MIC is the least concentration at which growth counts as inhibited. Usually HC50 stands for the concentration giving 50% haemolysis. In the case of `O=C1c2cccc3c(N/N=C/c4ccc5ccccc5c4)ccc(c23)C(=O)N1C(CO)CO`, the MIC in the data set on Acinetobacter baumannii was determined as 64 µg/mL (≈ 146 µM); against Staphylococcus aureus [1] it was 64 µg/mL (≈ 146 µM); against Escherichia coli [3] it was 32 µg/mL (≈ 72.8 µM); against Pseudomonas aeruginosa [6], 0.5 µg/mL (≈ 1.14 µM); in the data set with Staphylococcus aureus [7], 64 µg/mL (≈ 146 µM); with Escherichia coli [8] it was 16 µg/mL (≈ 36.4 µM). Besides, the MIC against Enterococcus faecalis came to 64 µg/mL (≈ 146 µM); with Klebsiella pneumoniae, 32 µg/mL (≈ 72.8 µM); against Staphylococcus aureus [15] it was 4 µg/mL (≈ 9.1 µM); with Pseudomonas aeruginosa [19], 1 µg/mL (≈ 2.28 µM); in the data set with Staphylococcus aureus [20], 128 µg/mL (≈ 291 µM). In [2], this compound registered an HC50 at 1 h greater than 1000 µg/mL. For the same compound, the result with Pseudomonas aeruginosa [4], in the data set on Pseudomonas aeruginosa [9], in the data set with Pseudomonas aeruginosa [10], with Pseudomonas aeruginosa [12], in the data set on Pseudomonas aeruginosa [13] and in the data set on Pseudomonas aeruginosa [16] was Active. Moreover, the outcome in the data set with Pseudomonas aeruginosa [17], in the data set with Pseudomonas aeruginosa [18], in the data set on Pseudomonas aeruginosa [21], in the data set on Pseudomonas aeruginosa [24], with Pseudomonas aeruginosa [25] and in the data set on Pseudomonas aeruginosa [26] was Active. Besides, the hemolysis at 1 h in data set [5] was less than 5%. Further, the Activity entry with L929 is listed as “Non-Toxic”; in the data set on Pseudomonas aeruginosa [11] it was 70%. Moreover, the inhibition entry with Pseudomonas aeruginosa [14] and with Pseudomonas aeruginosa [22] was “Active” each time. In data set [23], the selectivity ratio is greater than 2000.
Take `CCn1cc(C(=O)O)c(=O)c2cc(F)c(N3CCNCC3)cc21` [NORFLOXACIN]: the MIC in the data set with Acinetobacter baumannii was determined as 1 µg/mL (≈ 3.13 µM); in the data set on Staphylococcus aureus [1], 16 µg/mL (≈ 50.1 µM); with Escherichia coli [3], 4 µg/mL (≈ 12.5 µM); against Pseudomonas aeruginosa [6] it was 4 µg/mL (≈ 12.5 µM); against Staphylococcus aureus [7] it was 16 µg/mL (≈ 50.1 µM); against Escherichia coli [8] it was 2 µg/mL (≈ 6.26 µM). Besides, the MIC turned out to be 8 µg/mL (≈ 25.1 µM) with Enterococcus faecalis; 4 µg/mL (≈ 12.5 µM) against Klebsiella pneumoniae; 8 µg/mL (≈ 25.1 µM) against Staphylococcus aureus [15]; 2 µg/mL (≈ 6.26 µM) in the data set with Pseudomonas aeruginosa [19]; 16 µg/mL (≈ 50.1 µM) with Staphylococcus aureus [20]. Moreover, the results for the “fold change (FC)” value with Staphylococcus aureus [27] and in the data set on Pseudomonas aeruginosa [28] were 64 and 128, respectively.
